Test results taken from patent publication US10988449B2, “Isoxazole derivatives as nuclear receptor agonists and uses thereof” (IL DONG PHARMACEUTICAL CO., LTD., priority 2017, dated 2021).

Target: T1, human FXR (Homo sapiens, UniProt Q96RI1)
T1 construct: expressed in transfected cells
T1 sequence (Q96RI1 1-486): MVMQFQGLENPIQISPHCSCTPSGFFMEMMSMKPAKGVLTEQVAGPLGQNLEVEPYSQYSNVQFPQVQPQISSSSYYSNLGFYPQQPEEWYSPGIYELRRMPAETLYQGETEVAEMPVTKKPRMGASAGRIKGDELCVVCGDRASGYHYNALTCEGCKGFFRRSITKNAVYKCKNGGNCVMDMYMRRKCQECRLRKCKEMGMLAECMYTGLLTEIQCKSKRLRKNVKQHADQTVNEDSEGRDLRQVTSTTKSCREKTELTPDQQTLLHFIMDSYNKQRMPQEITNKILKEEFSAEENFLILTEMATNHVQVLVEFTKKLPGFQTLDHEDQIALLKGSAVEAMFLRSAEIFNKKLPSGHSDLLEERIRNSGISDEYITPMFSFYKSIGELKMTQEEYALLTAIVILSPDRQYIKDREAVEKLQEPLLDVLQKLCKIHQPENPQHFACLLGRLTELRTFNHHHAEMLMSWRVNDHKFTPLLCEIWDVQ
Test: FXR reporter assay (cellular FXR activities)
Type: cell-based
Conditions: for EC50: FXR reporter cells, 24 hours incubation, luciferase, read-out: Reporter Cell EC50; for Emax: read-out: Emax (%) (GW4064 Emax = 100%)
Method: FXR reporter assay was performed to measure cellular FXR activities of the compounds in the present invention. FXR reporter cells with high expression level of human FXR were seeded into 96-well cell culture plates, and incubated for 1-2 hours at 37° C. under 5% CO2 atmosphere. The invented compounds diluted in DMSO with various concentrations were added to the 96-well cell culture plates, and they were incubated for 24 hours at 37° C. under 5% CO2 atmosphere. After incubation, we calculate EC50 by using luciferase substrate.

Structure (SMILES) | EC50 [nM] | Emax [%]
O=C(O)c1cccc(C#Cc2cc(Cl)c(OCc3c(-c4c(Cl)cccc4Cl)noc3C3CC3)cc2Cl)c1 [Compound I-68, 3-((2,5-dichloro-4-((5-cyclopropyl-3-(2,6-dichlorophenyl)isoxazol-4-yl)methoxy)phenyl)ethynyl)benzoic acid] | > 1000 | 96
NS(=O)(=O)Nc1cccc(C#Cc2ccc(OCc3c(-c4c(Cl)cccc4Cl)noc3C3CC3)cc2Cl)c1 [Compound I-14, N-(3-((2-chloro-4-((5-cyclopropyl-3-(2,6-dichlorophenyl)isoxazol-4-yl)methoxy)phenyl)ethynyl)phenyl)sulfamide] | 200 to 1000 | 96
CNCc1cc(C#Cc2ccc(OCc3c(-c4c(Cl)cccc4Cl)noc3C3CC3)cc2Cl)cc(C(=O)O)c1 [Compound I-44, 3-((2-chloro-4-((5-cyclopropyl-3-(2,6-dichlorophenyl)isoxazol-4-yl)methoxy)phenyl)ethynyl)-5-((methylamino)methyl)benzoic acid] | 200 to 1000 | > 100
O=C(O)c1cccc(C#Cc2c(F)cc(OCc3c(-c4c(Cl)cccc4Cl)noc3C3CC3)cc2Cl)c1 [Compound I-70, 3-((2-chloro-4-((5-cyclopropyl-3-(2,6-dichlorophenyl)isoxazol-4-yl)methoxy)-6-fluorophenyl)ethynyl)benzoic acid] | 60 to 200 | > 100
CC(C)c1cc(C#Cc2ccc(OCc3c(-c4c(Cl)cccc4Cl)noc3C3CC3)cc2Cl)cc(C(=O)O)c1 [Compound I-66, 3-((2-chloro-4-((5-cyclopropyl-3-(2,6-dichlorophenyl)isoxazol-4-yl)methoxy)phenyl)ethynyl)-5-isopropylbenzoic acid] | 60 to 200 | 92
CC(C)(O)Cn1ccc2c(C#Cc3ccc(OCc4c(-c5c(Cl)cccc5Cl)noc4C4CC4)cc3Cl)cc(C(=O)O)cc21 [Compound I-98, 4-((2-chloro-4-((5-cyclopropyl-3-(2,6-dichlorophenyl)isoxazol-4-yl)methoxy)phenyl)ethynyl)-1-(2-hydroxy-2-methylpropyl)-1H-indole-6-carboxylic acid] | 20 to 60 | > 100
CCN(CC)c1cc(C#Cc2ccc(OCc3c(-c4c(Cl)cccc4Cl)noc3C3CC3)cc2Cl)cc(C(=O)O)c1 [Compound I-24, 3-((2-chloro-4-((5-cyclopropyl-3-(2,6-dichlorophenyl)isoxazol-4-yl)methoxy)phenyl)ethynyl)-5-(diethylamino)benzoic acid] | 20 to 60 | > 100
CCNc1cc(C#Cc2ccc(OCc3c(-c4c(Cl)cccc4Cl)noc3C3CC3)cc2Cl)cc(C(=O)O)c1 [Compound I-53, 3-((2-chloro-4-((5-cyclopropyl-3-(2,6-dichlorophenyl)isoxazol-4-yl)methoxy)phenyl)ethynyl)-5-(ethylamino)benzoic acid] | ≤ 20 | 93
O=C(O)c1cc(C#Cc2ccc(OCc3c(-c4c(Cl)cccc4Cl)noc3C3CC3)cc2Cl)cc2nc(CO)oc12 [Compound I-107, 5-((2-chloro-4-((5-cyclopropyl-3-(2,6-dichlorophenyl)isoxazol-4-yl)methoxy)phenyl)ethynyl)-2-(hydroxymethyl)benzo[d]oxazole-7-carboxylic acid] | > 1000 | > 100
C#Cc1ccc(OCc2c(-c3c(Cl)cccc3Cl)noc2C2CC2)cc1Cl [Compound I-5, 4-((3-chloro-4-ethynylphenoxy)methyl)-5-cyclopropyl-3-(2,6-dichlorophenyl)isoxazole] | 200 to 1000 | 84
CCOC(=O)N(C)c1cc(C#Cc2ccc(OCc3c(-c4c(Cl)cccc4Cl)noc3C3CC3)cc2Cl)cc(C(=O)O)c1 [Compound I-75] | 20 to 60 | 93
CCOC(=O)Nc1cccc(C#Cc2ccc(OCc3c(-c4c(Cl)cccc4Cl)noc3C3CC3)cc2Cl)c1 [Compound I-11, ethyl (3-((2-chloro-4-((5-cyclopropyl-3-(2,6-dichlorophenyl)isoxazol-4-yl)methoxy)phenyl)ethynyl)phenyl)carbamate] | > 1000 | 90
